Experimental data as given in patent publication US20110165226A1, “INFLUENZA CAP-LEADER SEQUENCE” (priority 2008, published 2011).

Test system: Influenza virus strain A/Puerto Rico/8/34 (H1/N1)
Type: biochemical

| Substance | transcripts containing capped leaders originating from the mutant [transcripts] |
| --- | --- |
| C9A10G11C12: leader length construct, CAGC within oligo U stretch, first base pairing A at position 10 (DNA CGACTCACTATAGTATTTTTCAGCTTTTTTTTTTCAAAATATTCCAAT; chemistry not fully specified; the letters are possibly those of the target site) | 9 |
| C10A11G12C13: leader length construct, CAGC within oligo U stretch, first base pairing A at position 11 (DNA CGACTCACTATAGTATTTTTTCAGCTTTTTTTTTCAAAATATTCCAAT; chemistry not fully specified; the letters are possibly those of the target site) | 5 |
